# Like-named read-outs stand apart in the source and are kept apart here.
# Experiments:
# [1] = cited from earlier work
# [2] = tested on: patients with mean baseline intraocular pressure of 24-25 mmHg; conditions: cited from earlier work
# [3] = tested on: human subjects with OHT/POAG; test: Phase 1b trial: conjunctival hyperemia, safety and tolerability; assay type: in vivo
# Experimental: A randomized, double-masked Phase 1b trial was designed to assess safety, tolerability, and efficacy of a Tie-2 activator (Compound 1) as an adjunctive therapy to prostaglandins for treatment of ocular hypertension (OHT) or primary open angle glaucoma (POAG). The study assessed the effects of increasing concentrations of Compound 1 dosed topically as eye drops (5 mg/mL QD, 15 mg/mL QD, 40 mg/mL QD, and 40 mg/mL BID) in 4 sequential cohorts of 12 subjects, randomized 3:1 to receive Compound 1 or placebo, for 7 days. Conjunctival hyperemia and IOP were assessed at 0 (pre-dose), 2 hours, 4 hours, and 8 hours post-dose on Day −1 (baseline), Day 1 (first day of Compound 1 dosing), and Day 7 (last day of dosing).
# In this study, 36 human subjects with OHT/POAG and baseline IOP measurements between 17 and 27 mmHg (inclusive) undergoing once-daily prostaglandin therapy were recruited. Subjects were randomized 3:1 to once-daily, 40 mg/mL Compound 1 (27 subjects), or placebo (9 subjects) in the morning (AM) for 7 days while continuing once-daily prostaglandin therapy in the evening (PM). Compound 1 (40 mg/mL) was a sodium salt formulated in 15% HPβCD and 1% mannitol. The Compound 1 ophthalmic solution was adjusted to a pH of 6.5-7.5 with 1N hydrochloric acid and/or IN sodium hydroxide prior to sterile filtration. Placebo was the same solution as the vehicle for the Compound 1 ophthalmic solution. Each dose of study medication (Compound 1 or placebo) was administered as one drop (30 μL) of dosing solution per eye in each subject. Compound 1 was administered to each eye (except on Day 1 and 2 in Cohort 1 in which only the right eye received Compound 1) by the topical ocular route using a dropper bottle to deliver eye drops. Compound 1 was administered for 7 days as a single morning dose daily. […]
# IOP was measured pre-dose (0 hr), 2 hrs, 4 hrs, and 8 hrs post-dose on Day −1, Day 1, and Day 7. […] Visual field testing, conjunctival hyperemia and IOP were also assessed. IOP was assessed by Goldmann applanation tonometry in both eyes at screening, baseline, and during treatment as indicated. […]
smiles,measurement,setting,value
"CC(C)OC(=O)CCC/C=C\C[C@@H]1[C@@H](CC[C@@H](O)CCc2ccccc2)[C@H](O)C[C@@H]1O [Latanoprost, latanoprost]",distribution volume,[1]; humans,0.16 ± 0.02 L/kg
same,administered dose recovered in the urine,[1]; intravenous dosing,~98%
same,administered dose recovered in the urine,[1]; topical dosing,about 88%
same,reductions in IOP,"[2]; baseline IOP 24-25 mmHg, treated for 6 months, multi-center randomized controlled trials",6-8 mmHg
same,start of reduction of the intraocular pressure after administration,"[2]; human, in vivo",3 to 4 h
same,time at which the maximum effect is reached,"[2]; human, in vivo",8 to 12 h
COC(=O)N[C@@H](Cc1ccccc1)C(=O)N[C@@H](Cc1ccc(NS(=O)(=O)O)cc1)c1csc(-c2cccs2)n1 [Compound 1],change in hyperemia over baseline,[3]; 2 hours post-dose,small increase
same,tolerability of topical ocular administration,[3]; 7 day study,well-tolerated
same,time by which hyperemia returned to baseline levels,[3]; post-dose,≤ 8 h
O=C(O)CCC/C=C\C[C@@H]1[C@@H](CC[C@@H](O)CCc2ccccc2)[C@H](O)C[C@@H]1O [acid of latanoprost],"t1/2, elimination from human plasma",[1]; after both intravenous and topical administration,17 min
same,Systemic clearance,[1]; human,approximately 7 mL/min/kg

# Reference: patent US20210212998A1, “Combinations of Tie-2 Activators and Prostaglandins and Uses Thereof” (Aerpio Pharmaceuticals, Inc., priority 2020, published 2021)
